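These data come from cells grown in 96-well plates and exposed to compound for 48 hours at five concentrations. GI50: concentration for 50% inhibition of growth.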 Active and inactive are the calls of the source. No stated cut-off is given here; in the data, active = GI50 up to about 1.1 µM and inactive = higher.
Assays:
Experiment in all cases: inhibition of tumour cell growth, NCI panel, 48 h
[1] = system: KM12
[2] = system: SK-MEL-5
[3] = system: 786-0
[4] = system: UACC-257
[5] = system: HCC 2998
[6] = system: NCI-H522
[7] = system: MOLT-4
[8] = system: RXF 393
[9] = system: HCT-15
[10] = system: ACHN
[11] = system: NCI-H23
[12] = system: SK-MEL-28
[13] = system: EKVX
[14] = system: HOP-62
[15] = system: KM-20L2
[16] = system: RXF 631
[17] = system: SK-OV-3
[18] = system: DLD-1
[19] = system: U-251
[20] = system: NCI-H460
[21] = system: HCT-116
[22] = system: M19-MEL
[23] = system: NCI-H226
[24] = system: XF498
[25] = system: OVCAR-8
[26] = system: OVCAR-3
[27] = system: TK-10
[28] = system: SNB-78
[29] = system: SF-268
[30] = system: RPMI-8226
[31] = system: SK-MEL-2
[32] = system: SNB-75
[33] = system: SR
[34] = system: SF-539
[35] = system: HT-29
[36] = system: Malme-3M
[37] = system: HOP-92
[38] = system: LOX IMVI
[39] = system: DMS-273
[40] = system: DMS-114
[41] = system: SF-295
[42] = system: SW-620
[43] = system: UACC-62
[44] = system: K562
[45] = system: SN12C
[46] = system: M14
[47] = system: IGROV-1
[48] = system: COLO 205
[49] = system: OVCAR-4
[50] = system: HL-60
[51] = system: UO-31
[52] = system: SNB-19
[53] = system: HOP-18
[54] = system: CCRF-CEM
[55] = system: LXFL 529
[56] = system: OVCAR-5
[57] = system: A549
[58] = system: CAKI-1
[59] = system: A498

Compound: [O-]c1c2c(nn1-c1ccccc1)c1ccccc1c[n+]2Cc1ccccc1
- GI50 [1]: > 100 µM (inactive)
- GI50 [2]: > 100 µM (inactive)
- GI50 [3]: > 100 µM (inactive)
- GI50 [4]: > 100 µM (inactive)
- GI50 [5]: > 100 µM (inactive)
- GI50 [6]: 73.6 µM (inactive)
- GI50 [7]: > 100 µM (inactive)
- GI50 [8]: 0.13 µM (active)
- GI50 [9]: > 100 µM
- GI50 [10]: > 100 µM (inactive)
- GI50 [11]: > 100 µM (inactive)
- GI50 [12]: > 100 µM (inactive)
- GI50 [13]: > 100 µM (inactive)
- GI50 [14]: > 100 µM (inactive)
- GI50 [15]: > 100 µM (inactive)
- GI50 [16]: > 100 µM (inactive)
- GI50 [17]: > 100 µM (inactive)
- GI50 [18]: > 100 µM (inactive)
- GI50 [19]: > 100 µM (inactive)
- GI50 [20]: > 100 µM (inactive)
- GI50 [21]: > 100 µM (inactive)
- GI50 [22]: > 100 µM (inactive)
- GI50 [23]: > 100 µM (inactive)
- GI50 [24]: > 100 µM (inactive)
- GI50 [25]: > 100 µM (inactive)
- GI50 [26]: > 100 µM (inactive)
- GI50 [27]: > 100 µM (inactive)
- GI50 [28]: > 100 µM (inactive)
- GI50 [29]: 47.1 µM (inactive)
- GI50 [30]: > 100 µM (inactive)
- GI50 [31]: > 100 µM (inactive)
- GI50 [32]: 50.4 µM (inactive)
- GI50 [33]: > 100 µM (inactive)
- GI50 [34]: > 100 µM (inactive)
- GI50 [35]: > 100 µM (inactive)
- GI50 [36]: > 100 µM (inactive)
- GI50 [37]: > 100 µM (inactive)
- GI50 [38]: > 100 µM (inactive)
- GI50 [39]: > 100 µM (inactive)
- GI50 [40]: > 100 µM (inactive)
- GI50 [41]: > 100 µM (inactive)
- GI50 [42]: > 100 µM (inactive)
- GI50 [43]: > 100 µM (inactive)
- GI50 [44]: > 100 µM (inactive)
- GI50 [45]: > 100 µM (inactive)
- GI50 [46]: > 100 µM (inactive)
- GI50 [47]: > 100 µM (inactive)
- GI50 [48]: > 100 µM (inactive)
- GI50 [49]: 78 µM (inactive)
- GI50 [50]: > 100 µM (inactive)
- GI50 [51]: > 100 µM (inactive)
- GI50 [52]: > 100 µM (inactive)
- GI50 [53]: > 100 µM (inactive)
- GI50 [54]: > 100 µM (inactive)
- GI50 [55]: > 100 µM (inactive)
- GI50 [56]: > 100 µM (inactive)
- GI50 [57]: > 100 µM (inactive)

Compound: COC(=O)C1=C(C(=O)OC)C23CC1C1C(C(=O)OC)=C(C(=O)OC)C12C1C=CC3C2C(=O)OC(=O)C21 (stereo not drawn)
- GI50 [1]: 31 µM (inactive)
- GI50 [2]: 41.8 µM (inactive)
- GI50 [3]: 94.2 µM (inactive)
- GI50 [4]: 45.2 µM (inactive)
- GI50 [5]: 66.7 µM (inactive)
- GI50 [6]: 22.4 µM (inactive)
- GI50 [7]: 38.6 µM (inactive)
- GI50 [8]: 38.9 µM (inactive)
- GI50 [9]: 42.1 µM
- GI50 [10]: 53.5 µM (inactive)
- GI50 [11]: 37.8 µM (inactive)
- GI50 [12]: 65.5 µM (inactive)
- GI50 [13]: > 100 µM (inactive)
- GI50 [14]: > 100 µM (inactive)
- GI50 [15]: > 100 µM (inactive)
- GI50 [16]: 71.6 µM (inactive)
- GI50 [18]: 76.9 µM (inactive)
- GI50 [19]: 48.2 µM (inactive)
- GI50 [20]: 34.7 µM (inactive)
- GI50 [21]: 37.7 µM (inactive)
- GI50 [22]: 50.9 µM (inactive)
- GI50 [24]: 45.9 µM (inactive)
- GI50 [25]: 48.3 µM (inactive)
- GI50 [26]: 3.72 µM (inactive)
- GI50 [27]: > 100 µM (inactive)
- GI50 [28]: 24.2 µM (inactive)
- GI50 [29]: 48.3 µM (inactive)
- GI50 [30]: 32.3 µM (inactive)
- GI50 [31]: 35 µM (inactive)
- GI50 [32]: 7.1 µM (inactive)
- GI50 [34]: 23.7 µM (inactive)
- GI50 [35]: 68.7 µM (inactive)
- GI50 [36]: 44.5 µM (inactive)
- GI50 [37]: 25.3 µM (inactive)
- GI50 [39]: 36.6 µM (inactive)
- GI50 [40]: 26.6 µM (inactive)
- GI50 [41]: 53 µM (inactive)
- GI50 [42]: 37.5 µM (inactive)
- GI50 [43]: 31.5 µM (inactive)
- GI50 [44]: 24 µM (inactive)
- GI50 [45]: 91.4 µM (inactive)
- GI50 [46]: 41.3 µM (inactive)
- GI50 [47]: 59 µM (inactive)
- GI50 [48]: 28.3 µM (inactive)
- GI50 [49]: 39.4 µM (inactive)
- GI50 [50]: 40.1 µM (inactive)
- GI50 [51]: 84.9 µM (inactive)
- GI50 [52]: 62.1 µM (inactive)
- GI50 [54]: 40.4 µM (inactive)
- GI50 [55]: 39.6 µM (inactive)
- GI50 [56]: > 100 µM (inactive)
- GI50 [57]: 49 µM (inactive)

Compound: COc1ccc(C(=O)O/N=C2\CCCC\C2=C/c2ccccc2)cc1
- GI50 [2]: > 100 µM (inactive)
- GI50 [3]: 33.8 µM (inactive)
- GI50 [5]: > 100 µM (inactive)
- GI50 [7]: > 100 µM (inactive)
- GI50 [9]: > 100 µM
- GI50 [10]: 67.3 µM (inactive)
- GI50 [11]: 15.4 µM (inactive)
- GI50 [12]: > 100 µM (inactive)
- GI50 [13]: > 100 µM (inactive)
- GI50 [14]: 45.3 µM (inactive)
- GI50 [15]: > 100 µM (inactive)
- GI50 [16]: > 100 µM (inactive)
- GI50 [58]: 81.5 µM (inactive)
- GI50 [17]: > 100 µM (inactive)
- GI50 [18]: > 100 µM (inactive)
- GI50 [19]: 57.3 µM (inactive)
- GI50 [20]: > 100 µM (inactive)
- GI50 [21]: > 100 µM (inactive)
- GI50 [22]: > 100 µM (inactive)
- GI50 [24]: 35.5 µM (inactive)
- GI50 [25]: > 100 µM (inactive)
- GI50 [27]: 68.7 µM (inactive)
- GI50 [28]: 34 µM (inactive)
- GI50 [29]: 67.1 µM (inactive)
- GI50 [32]: 28.4 µM (inactive)
- GI50 [34]: 27.5 µM (inactive)
- GI50 [35]: > 100 µM (inactive)
- GI50 [38]: > 100 µM (inactive)
- GI50 [39]: > 100 µM (inactive)
- GI50 [40]: 80.7 µM (inactive)
- GI50 [42]: > 100 µM (inactive)
- GI50 [43]: > 100 µM (inactive)
- GI50 [44]: > 10 µM (inactive)
- GI50 [45]: > 100 µM (inactive)
- GI50 [59]: 74.8 µM (inactive)
- GI50 [46]: > 100 µM (inactive)
- GI50 [47]: > 100 µM (inactive)
- GI50 [48]: > 100 µM (inactive)
- GI50 [49]: 27.6 µM (inactive)
- GI50 [50]: > 100 µM (inactive)
- GI50 [51]: > 100 µM (inactive)
- GI50 [52]: 58.3 µM (inactive)
- GI50 [53]: 51.5 µM (inactive)
- GI50 [54]: > 100 µM (inactive)
- GI50 [55]: > 100 µM (inactive)
- GI50 [57]: > 100 µM (inactive)

Compound: CCC(C)(O)c1cn(-c2ccc(S(=O)(=O)O)cc2)nn1 (stereo not drawn)
- GI50 [1]: > 100 µM (inactive)
- GI50 [2]: > 100 µM (inactive)
- GI50 [3]: > 100 µM (inactive)
- GI50 [4]: > 100 µM (inactive)
- GI50 [5]: > 100 µM (inactive)
- GI50 [6]: > 100 µM (inactive)
- GI50 [7]: > 100 µM (inactive)
- GI50 [8]: > 100 µM (inactive)
- GI50 [9]: > 100 µM
- GI50 [10]: > 100 µM (inactive)
- GI50 [11]: > 100 µM (inactive)
- GI50 [12]: > 100 µM (inactive)
- GI50 [13]: > 100 µM (inactive)
- GI50 [14]: > 100 µM (inactive)
- GI50 [15]: > 100 µM (inactive)
- GI50 [16]: > 100 µM (inactive)
- GI50 [58]: > 100 µM (inactive)
- GI50 [17]: > 100 µM (inactive)
- GI50 [18]: > 100 µM (inactive)
- GI50 [19]: > 100 µM (inactive)
- GI50 [20]: > 100 µM (inactive)
- GI50 [21]: > 100 µM (inactive)
- GI50 [22]: > 100 µM (inactive)
- GI50 [23]: > 100 µM (inactive)
- GI50 [24]: > 100 µM (inactive)
- GI50 [25]: > 100 µM (inactive)
- GI50 [26]: > 100 µM (inactive)
- GI50 [27]: > 100 µM (inactive)
- GI50 [28]: > 100 µM (inactive)
- GI50 [29]: > 100 µM (inactive)
- GI50 [30]: > 100 µM (inactive)
- GI50 [31]: > 100 µM (inactive)
- GI50 [32]: > 100 µM (inactive)
- GI50 [34]: > 100 µM (inactive)
- GI50 [35]: > 100 µM (inactive)
- GI50 [36]: > 100 µM (inactive)
- GI50 [37]: > 100 µM (inactive)
- GI50 [38]: > 100 µM (inactive)
- GI50 [39]: > 100 µM (inactive)
- GI50 [40]: > 100 µM (inactive)
- GI50 [41]: > 100 µM (inactive)
- GI50 [42]: > 100 µM (inactive)
- GI50 [43]: > 100 µM (inactive)
- GI50 [44]: > 100 µM (inactive)
- GI50 [45]: > 100 µM (inactive)
- GI50 [59]: > 100 µM (inactive)
- GI50 [46]: > 100 µM (inactive)
- GI50 [47]: > 100 µM (inactive)
- GI50 [48]: > 100 µM (inactive)
- GI50 [49]: > 100 µM (inactive)
- GI50 [50]: > 100 µM (inactive)
- GI50 [51]: > 100 µM (inactive)
- GI50 [52]: > 100 µM (inactive)
- GI50 [53]: > 100 µM (inactive)
- GI50 [54]: > 100 µM (inactive)
- GI50 [55]: > 100 µM (inactive)
- GI50 [56]: > 100 µM (inactive)
- GI50 [57]: > 100 µM (inactive)
